According to patent US8785457B2 (Cellzome Limited, priority 2009, dated 2014):
Where two headings read alike, the source gives them in different places.

Columns and labels:
mTOR = molecular target: T1, mTOR (Homo sapiens, UniProt P42345); assay: mTOR kinobeads assay (competitive binding in Jurkat cell lysate, immunodetection)
T1 construct: endogenous in cells; host or cells: Jurkat, clone E6-1 (ATCC TIB-152) cell lysate
Summary of the method: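 IC50 derived from dose-response curves of mTOR captured on immobilized phenylmorpholin-chromen beads, detected by antibody dot blot with infrared fluorescence.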

[1] = test system: S6RP serine-240/244 phosphorylation; assay: In vitro Phospho-S6 cellular assay (pS6RP S240/244) in HEK293T/17 cells; type: cell-based; settings: Homo sapiens, 2 hours, read-out: pS6 IC50
Description: Activation of mTOR signaling results in phosphorylation of several downstream targets. In cells, mTOR exists in two different protein complexes. The mTOR Complex-1 (mTORC1) phosphorylates and activates S6 Kinase 1 (S6K1) and S6 Kinase 2 (S6K2) (also known as p70S6K) which then phosphorylate S6 Ribosomal Protein (S6RP) (also known as RPS6)3. S6RP is phosphorylated on serine 235, serine 236, serine 240 and serine 244 by both pS6K1 and pS6K2. The mTOR Complex-2 (mTORC2) phosphorylates AKT on serine 473 which activates the AKT signaling pathway.
The assay measures a test compound's inhibition of S6RP serine-240/244 phosphorylation and inhibition of Akt serine-473 phosphorylation in human embryonic kidney derived HEK293T/17 cells (ATCC CRL-11268).
The HEK293T/17 cell line is maintained in DMEM media (Invitrogen catalogue number 41965-039) supplemented with 10% FCS at 37° C. in a 5% CO2 humidified incubator.
Cells are seeded in 96-well plates at 40,000 cells/well (pS6RP S240/244 assay) or 80,000 cells/well (pAkt S473 assay) in 90 μl growth media (DMEM, 2% FCS). Plates are incubated for 1 hour in a humidified incubator to allow the cells to adhere. Cells are treated with 8 concentrations of test compounds or DMSO alone for controls (final DMSO concentration 0.1%) and incubated at 37° C. for 2 hours. Then 20 μl of 5× concentrated lysis buffer (750 mM NaCl, 100 mM Tris pH7.4, 5 mM ADTA, 5 mM EGTA, 5% Triton X-100) is added, plates are sealed and incubated for 15 minutes at 4° C. with gentle shaking. After cell lysis, 25 μl cell lysate is transferred to a MesoScale plate coated with an antibody to pS6RP Ser240/244 (MesoScale Discovery K150DGD-3) or an antibody to pAkt Ser 473 (MesoScale Discovery K151DGD-3). Plates have been blocked before by incubation with 150 μl MesoScale Discovery Blocking Solution-A for 1 hour at room temperature followed by washing with 150 μl 1× Tris wash buffer per well. After the transfer of the cell lysate to the MSD plate, the pS6RP (or pAkt) protein is captured on the coated antibody by incubation at room temperature for 1 hour with gentle shaking. After the capture step the plate is washed three times with 150 μl of 1× Tris wash buffer per well. Then 25 μl detection antibody conjugated with a Sulfo-Tag is added and incubated for 1 hour at room temperature with gentle shaking. Subsequently the antibody solution is removed and the plate is washed 3 times with 150 μl×Tris wash buffer per well and 150 μl Read buffer is added. The plates are analysed on a MSD 2400 Plate Reader (MesoScale Discovery). Data analysis is performed using nonlinear regression for a sigmoidal dose-response with a variable slope.

PI3 Kgamma (PI3 Kg) = molecular target: T2, PI3 Kgamma (PI3 Kg) (Homo sapiens, UniProt P48736); assay: kinobeads assay, PI3Kgamma; type: binding
T2 construct: endogenous in cells; host or cells: cell lysate
Summary of the method: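 Test compounds at various concentrations were added to cell lysate together with beads carrying an immobilized phenylmorpholin-chromen ligand, competing for kinase binding. Captured proteins were separated, eluted and quantified by multiplexed immunodetection; IC50 values came from dose-response curves for each kinase.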

[2] = kinobeads assay, Table 4, read-out: Inhibition values (IC50) mTor
[3] = kinobeads assay, Table 6, read-out: Inhibition values (IC50) mTOR
[4] = kinobeads assay, Table 6, read-out: Inhibition values (IC50) PI3Kg
[5] = Further Kinobeads Data, read-out: mTor
[6] = Further Kinobeads Data, read-out: PI3Kg

T2 sequence (P48736 whole entry): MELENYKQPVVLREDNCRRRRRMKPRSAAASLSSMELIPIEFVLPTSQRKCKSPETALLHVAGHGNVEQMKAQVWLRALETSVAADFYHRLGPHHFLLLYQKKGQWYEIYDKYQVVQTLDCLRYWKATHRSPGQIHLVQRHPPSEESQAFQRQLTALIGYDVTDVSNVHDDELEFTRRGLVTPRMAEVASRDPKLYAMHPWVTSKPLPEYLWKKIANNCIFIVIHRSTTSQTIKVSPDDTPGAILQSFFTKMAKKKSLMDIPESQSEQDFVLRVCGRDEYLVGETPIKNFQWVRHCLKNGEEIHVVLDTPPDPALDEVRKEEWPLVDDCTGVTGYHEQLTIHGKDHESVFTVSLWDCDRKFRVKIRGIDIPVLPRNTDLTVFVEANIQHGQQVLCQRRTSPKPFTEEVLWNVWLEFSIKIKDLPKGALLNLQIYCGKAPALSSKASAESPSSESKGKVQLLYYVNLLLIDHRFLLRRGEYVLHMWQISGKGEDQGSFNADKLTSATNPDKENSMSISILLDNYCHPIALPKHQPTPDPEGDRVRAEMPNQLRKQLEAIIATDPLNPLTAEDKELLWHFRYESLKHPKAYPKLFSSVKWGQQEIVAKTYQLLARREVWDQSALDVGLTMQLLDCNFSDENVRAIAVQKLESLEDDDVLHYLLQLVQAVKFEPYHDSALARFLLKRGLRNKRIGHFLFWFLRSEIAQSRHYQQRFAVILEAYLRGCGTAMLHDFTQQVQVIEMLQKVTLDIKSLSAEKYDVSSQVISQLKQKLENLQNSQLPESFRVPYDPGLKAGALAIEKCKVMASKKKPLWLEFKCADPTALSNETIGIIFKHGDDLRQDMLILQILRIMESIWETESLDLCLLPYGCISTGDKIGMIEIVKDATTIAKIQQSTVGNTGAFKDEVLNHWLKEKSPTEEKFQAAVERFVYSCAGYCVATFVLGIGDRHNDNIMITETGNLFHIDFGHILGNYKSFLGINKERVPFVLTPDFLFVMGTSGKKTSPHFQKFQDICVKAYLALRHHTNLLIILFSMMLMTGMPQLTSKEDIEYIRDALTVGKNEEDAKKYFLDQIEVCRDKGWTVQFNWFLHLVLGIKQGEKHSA

Row | SMILES | IC50 (mTOR; [2]) | IC50 (mTOR; [3]) | IC50 [1] | IC50 (PI3 Kgamma (PI3 Kg); [4]) | IC50 (mTOR; [5]) | IC50 (PI3 Kgamma (PI3 Kg); [6])
1 | CCNC(=O)Nc1ccc(-c2nc3c(c(N4CCOC[C@@H]4C)n2)CN(Cc2ccc(F)cc2)C3)cc1 [Example 29, (S)-1-ethyl-3-(4-(6-(4-fluorobenzyl)-4-(3-methylmorpholino)-6,7-dihydro-5H-pyrrolo[3,4-d]pyrimidin-2-yl)phenyl)urea] | 100 to 1000 nM | 100 to 1000 nM | 130 nM | > 10000 nM |  | 
2 | CC(C)N1Cc2nc(-c3ccc(NC(=O)NC4CC4)cc3F)nc(N3CCOC[C@@H]3C)c2C1 [Example 172, (S)-1-cyclopropyl-3-(3-fluoro-4-(6-isopropyl-4-(3-methylmorpholino)-6,7-dihydro-5H-pyrrolo[3,4-d]pyrimidin-2-yl)phenyl)urea] |  |  | 187 nM |  | < 100 nM | 1000 to 10000 nM
3 | CCNC(=O)Nc1ccc(-c2nc3c(c(N4CCOC[C@@H]4C)n2)CCN(C(=O)C2CC2)C3)cc1 [Example 56, (S)-1-(4-(7-(cyclopropanecarbonyl)-4-(3-methylmorpholino)-5,6,7,8-tetrahydropyrido[3,4-d]pyrimidin-2-yl)phenyl)-3-ethylurea] | < 100 nM | < 100 nM | 32 nM | > 10000 nM |  | 
4 | CCNC(=O)Nc1cc(F)c(-c2nc3c(c(N4CCOC[C@@H]4C)n2)CN(C(=O)OCC)C3)cc1F [Example 141, (S)-ethyl 2-(4-(3-ethylureido)-2,5-difluorophenyl)-4-(3-methylmorpholino)-5H-pyrrolo[3,4-d]pyrimidine-6(7H)-carboxylate] |  |  | 838 nM |  | 1000 to 10000 nM | > 10000 nM
5 | CC(C)N1Cc2nc(-c3ccc(NC(=O)NCCF)cc3F)nc(N3CCOC[C@@H]3C)c2C1 [Example 186, (S)-1-(3-fluoro-4-(6-isopropyl-4-(3-methylmorpholino)-6,7-dihydro-5H-pyrrolo[3,4-d]pyrimidin-2-yl)phenyl)-3-(2-fluoroethyl)urea] |  |  | 197 nM |  | < 100 nM | > 10000 nM
6 | CCNC(=O)Nc1ccc(-c2nc3c(c(N4CCOCC4)n2)CN(C)C3)c(F)c1 [Example 154, 1-ethyl-3-(3-fluoro-4-(6-methyl-4-morpholino-6,7-dihydro-5H-pyrrolo[3,4-d]pyrimidin-2-yl)phenyl)urea] |  |  | 436 nM |  | 100 to 1000 nM | > 10000 nM
7 | C[C@H]1COCCN1c1nc(-c2ccc(NC(=O)Nc3ccc(F)cc3)cc2)nc2c1CN(C)C2 [Example 52, (S)-1-(4-fluorophenyl)-3-(4-(6-methyl-4-(3-methylmorpholino)-6,7-dihydro-5H-pyrrolo[3,4-d]pyrimidin-2-yl)phenyl)urea] | 100 to 1000 nM | 100 to 1000 nM | 90 nM | > 10000 nM |  | 
8 | C[C@H]1COCCN1c1nc(-c2ccc(NC(=O)NC3CC3)cc2F)nc2c1CN(S(C)(=O)=O)C2 [Example 177, (S)-1-cyclopropyl-3-(3-fluoro-4-(4-(3-methylmorpholino)-6-(methylsulfonyl)-6,7-dihydro-5H-pyrrolo[3,4-d]pyrimidin-2-yl)phenyl)urea] |  |  | 410 nM |  | < 100 nM | > 10000 nM
9 | C[C@H]1COCCN1c1nc(-c2ccc(NC(=O)NC3CC3)cc2)nc2c1CNCC2 [Example 11, (S)-1-cyclopropyl-3-(4-(4-(3-methylmorpholino)-5,6,7,8-tetrahydropyrido[4,3-d]pyrimidin-2-yl)phenyl)urea] | 100 to 1000 nM | 100 to 1000 nM | 588 nM |  |  | 
10 | CC(C)C(=O)N1Cc2nc(-c3ccc(NC(=O)NC4CC4)cc3)nc(N3CCOC[C@@H]3C)c2C1 [Example 44, (S)-1-cyclopropyl-3-(4-(6-isobutyryl-4-(3-methylmorpholino)-6,7-dihydro-5H-pyrrolo[3,4-d]pyrimidin-2-yl)phenyl)urea] | < 100 nM | < 100 nM | 205 nM |  |  | 
11 | CCNC(=O)Nc1ccc(-c2nc3c(c(N4CCOC[C@@H]4C)n2)CN(S(C)(=O)=O)C3)cc1 [Example 32, (S)-1-ethyl-3-(4-(4-(3-methylmorpholino)-6-(methylsulfonyl)-6,7-dihydro-5H-pyrrolo[3,4-d]pyrimidin-2-yl)phenyl)urea] | < 100 nM | < 100 nM | 182 nM |  |  | 
12 | C[C@H]1COCCN1c1nc(-c2ccc(NC(=O)NC3CC3)cc2)nc2c1CCNC2 [Example 15, (S)-1-cyclopropyl-3-(4-(4-(3-methylmorpholino)-5,6,7,8-tetrahydropyrido[3,4-d]pyrimidin-2-yl)phenyl)urea] | < 100 nM | < 100 nM | 238 nM |  |  | 
13 | C[C@H]1COCCN1c1nc(-c2ccc(NC(=O)NC3CC3)cc2)nc2c1CN(C(=O)C1CC1)C2 [Example 17, (S)-1-(4-(6-(cyclopropanecarbonyl)-4-(3-methylmorpholino)-6,7-dihydro-5H-pyrrolo[3,4-d]pyrimidin-2-yl)phenyl)-3-cyclopropylurea] | < 100 nM | < 100 nM | 142 nM |  |  | 
14 | COC(=O)N1Cc2nc(-c3ccc(NC(=O)NCCF)cc3F)nc(N3CCOCC3)c2C1 [Example 169, Methyl 2-(2-fluoro-4-(3-(2-fluoroethyl)ureido)phenyl)-4-morpholino-5H-pyrrolo[3,4-d]pyrimidine-6(7H)-carboxylate] |  |  | 143 nM |  | < 100 nM | 
15 | CCN1Cc2nc(-c3ccc(NC(=O)NC4CC4)cc3)nc(N3CCOC[C@@H]3C)c2C1 [Example 36, (S)-1-cyclopropyl-3-(4-(6-ethyl-4-(3-methylmorpholino)-6,7-dihydro-5H-pyrrolo[3,4-d]pyrimidin-2-yl)phenyl)urea] | < 100 nM | < 100 nM | 113 nM |  |  | 
16 | CCCNC(=O)Nc1ccc(-c2nc3c(c(N4CCOC[C@@H]4C)n2)CN(CC2CC2)C3)cc1 [Example 49, (S)-1-(4-(6-(cyclopropylmethyl)-4-(3-methylmorpholino)-6,7-dihydro-5H-pyrrolo[3,4-d]pyrimidin-2-yl)phenyl)-3-propylurea] | 100 to 1000 nM | 100 to 1000 nM | 306 nM |  |  | 
17 | CNC(=O)Nc1ccc(-c2nc3c(c(N4CCOC[C@@H]4C)n2)CN(CC2CC2)C3)cc1 [Example 47, (S)-1-(4-(6-(cyclopropylmethyl)-4-(3-methylmorpholino)-6,7-dihydro-5H-pyrrolo[3,4-d]pyrimidin-2-yl)phenyl)-3-methylurea] | < 100 nM | < 100 nM | 218 nM |  |  | 
18 | CCNC(=O)N1Cc2nc(-c3ccc(NC(=O)NC4CC4)cc3)nc(N3CCOC[C@@H]3C)c2C1 [Example 33, (S)-2-(4-(3-cyclopropylureido)phenyl)-N-ethyl-4-(3-methylmorpholino)-5H-pyrrolo[3,4-d]pyrimidine-6(7H)-carboxamide] | < 100 nM | < 100 nM | 379 nM |  |  | 
19 | CC(=O)N1Cc2nc(-c3ccc(NC(=O)NC4CC4)cc3)nc(N3CCOC[C@@H]3C)c2C1 [Example 20, (S)-1-(4-(6-acetyl-4-(3-methylmorpholino)-6,7-dihydro-5H-pyrrolo[3,4-d]pyrimidin-2-yl)phenyl)-3-cyclopropylurea] | < 100 nM | < 100 nM | 330 nM |  |  | 
20 | CCNC(=O)Nc1ccc(-c2nc3c(c(N4CCOC[C@@H]4C)n2)CN(C)C3)cc1 [Example 26, (S)-1-ethyl-3-(4-(6-methyl-4-(3-methylmorpholino)-6,7-dihydro-5H-pyrrolo[3,4-d]pyrimidin-2-yl)phenyl)urea] | < 100 nM | < 100 nM | 196 nM |  |  | 
21 | CCNC(=O)Nc1ccc(-c2nc3c(c(N4CCOC[C@@H]4C)n2)CCNC3)cc1 [Example 13, (S)-1-ethyl-3-(4-(4-(3-methylmorpholino)-5,6,7,8-tetrahydropyrido[3,4-d]pyrimidin-2yl)phenyl)urea] | < 100 nM | < 100 nM | 240 nM |  |  | 
